Experimental data: publication PMC13267113 (npj Drug Discovery, 2025)

Tested on: U-2 OS cells
Assay: Mitochondrial superoxide formation (MitoSOX Red)
Format: cell-based, human
Conditions: n = 6
Protocol: CYS was tested for its potential to induce oxidative stress in U-2 OS cells. Therefore, 120 µL of a cell suspension in McCoy’s (+10% FBS) containing 5 × 10^4 cells/mL were seeded into black 96-well imaging plate (BD Falcon). The plates were incubated for two days (37 °C, 5% CO2) until the cells reached approximately 70% confluence. Subsequently, the cells were washed with HBSS buffer, prior to adding CYS (20 µM) and the ROS inducer menadione (50 µM) as positive control, along with the staining solution (HBSS, calcium, magnesium, 5 µM MitoSOX red and 10 µg/mL Hoechst (Thermo)). To check for ROS protective properties, menadione (50 µM) was added directly to the staining solution. […] Afterwards, the cells were washed twice with HBSS. The cells were imaged using an automated fluorescence microscope (Celldiscoverer 7, Zeiss) (excitation: […]) to analyze the fluorescence intensity of the superoxide tracker MitoSOX red. The experiment was carried out with six replicates per condition. Quantification was done by high-content image analysis using the ZEN software (version 3.4, blue edition, Zeiss). Data presentation was done using GraphPad Prism (version 10.0.3) with ordinary one-way ANOVA including multiple comparisons to the control group for statistical analysis of the sample without ROS induction via menadione in the staining solution. Multiple unpaired t test was used to compare samples for ROS protective properties, which were incubated with menadione in the staining solution.

Which “basal superoxide radical levels vs DMSO control” value (20 µM, MitoSOX Red, no menadione) does the source give for `CO[C@H](C(N)=O)[C@H](NC(=O)c1ccc(NC(=O)c2ccc(C#N)cc2)cc1)C(=O)Nc1ccc(C(=O)Nc2ccc(C(=O)Nc3ccc(C(=O)O)cc3)c(O)c2OC(C)C)cc1` [CN-861-2] here?
Its value is “decrease of superoxide radical levels”.

And the “menadione-induced superoxide formation on co-treatment” value (CYS 20 µM + menadione 50 µM)?
Its value is “slight yet statistically significant increase in superoxide production”.
